Results taken from patent US7902229B2, “Anthranilamide pyridinureas as vascular endothelial growth factor (VEGF) receptor kinase inhibitors” (Bayer Schering Pharma AG, priority 2004, dated 2011).

What was measured:
[1] = target: T1, human Cytochrome P 450 isoenzyme 2C19 (Homo sapiens, UniProt P33261); assay: Cytochrome P450 Inhibition (2C19); format: in vitro ADME; settings: baculovirus/insect cell-expressed human isoenzyme, according to Crespi et al.; read-out: IC50 CYP 2C19
T1 construct: host or cells: baculovirus/insect cells
T1 sequence (P33261 whole entry): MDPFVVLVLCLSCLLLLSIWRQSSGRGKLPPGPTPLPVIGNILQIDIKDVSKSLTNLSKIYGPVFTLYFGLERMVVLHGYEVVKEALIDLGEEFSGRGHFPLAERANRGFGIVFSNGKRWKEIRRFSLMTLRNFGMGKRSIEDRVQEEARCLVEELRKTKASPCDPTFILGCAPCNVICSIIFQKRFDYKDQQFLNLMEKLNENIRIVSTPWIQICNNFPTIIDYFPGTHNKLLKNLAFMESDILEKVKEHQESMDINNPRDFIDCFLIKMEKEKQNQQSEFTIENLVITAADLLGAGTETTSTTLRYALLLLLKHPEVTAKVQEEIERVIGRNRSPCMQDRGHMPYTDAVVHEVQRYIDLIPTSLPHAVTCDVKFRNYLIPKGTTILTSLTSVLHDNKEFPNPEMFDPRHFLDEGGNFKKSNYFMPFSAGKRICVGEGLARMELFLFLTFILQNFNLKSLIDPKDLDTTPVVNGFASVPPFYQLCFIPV
Procedure: (§1) Cytochrome P450 Inhibition
(§2) The Cytochrome P450 isoenzyme inhibition was performed according to the publication of Crespi et al. (Anal. Biochem., 1997, 248, 188-190) with use of the baculovirus/insect cell-expressed, human Cytochrome P 450 isoenzymes (2C9 and 2C19).

KDR-Kinase (VEGFR-2) = target: T2, KDR-Kinase (VEGFR-2) (Homo sapiens, UniProt P35968); assay: KDR Kinase Inhibition; format: biochemical; settings: GST-kinase domain fusion construct of the KDR kinase; poly(Glu4Tyr) substrate, 32P-ATP, 10 min
T2 construct: GST-kinase domain fusion construct of the KDR kinase; GST
T2 sequence (P35968 834-1162 limits assumed, species assumed): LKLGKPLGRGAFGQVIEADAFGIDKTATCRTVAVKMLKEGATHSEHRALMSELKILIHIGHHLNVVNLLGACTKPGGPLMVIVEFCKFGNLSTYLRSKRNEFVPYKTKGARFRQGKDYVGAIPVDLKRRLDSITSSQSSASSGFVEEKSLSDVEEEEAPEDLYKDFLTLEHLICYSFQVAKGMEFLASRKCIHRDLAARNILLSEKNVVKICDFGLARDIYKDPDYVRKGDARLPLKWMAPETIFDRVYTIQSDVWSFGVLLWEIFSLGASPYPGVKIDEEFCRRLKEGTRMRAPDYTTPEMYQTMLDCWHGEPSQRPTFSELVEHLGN
Procedure: Kinase activity was measured with a GST-kinase domain fusion construct of the KDR kinase according to the following protocol to obtain concentration response curves. Components were added into a microtiterplate in the following sequence: 10 μl of inhibitor in threefold final concentration [3% DMSO in buffer (40 mM TrisCl pH 7.5; 1 mM DTT, 1 mM MnCl2, 10 mM MgCl2, 2.5 Promille Polyethyleneglycol 20000)] and 10 μ, of substrate mixture [24 μM ATP, 24 μg/ml poly(Glu4Tyr) in buffer, specific activity approx. 500 cpm/pmol ^32P-[…]ATP]. Reaction was started by adding 10 μl of enzyme preparation diluted appropriately in buffer that contains 10 μM vanadate. After incubation for exactly 10 min the reaction was stopped by adding of 10 μl stop solution (250 mM EDTA). 10 μl of the reaction mixture were transferred to phosphocellulose filters. The filters were washed in 0.1% phosphoric acid, dried before meltilex-scintillator was applied (Wallac, Perkin-Elmer) and the radioactivity was counted.

[2] = target: T3, human Cytochrome P 450 isoenzyme 2C9 (Homo sapiens, UniProt P11712); assay: Cytochrome P450 Inhibition (2C9); format: in vitro ADME; settings: baculovirus/insect cell-expressed human isoenzyme, according to Crespi et al.; read-out: IC50 CYP 2C9
T3 construct: host or cells: baculovirus/insect cells
T3 sequence (P11712 whole entry): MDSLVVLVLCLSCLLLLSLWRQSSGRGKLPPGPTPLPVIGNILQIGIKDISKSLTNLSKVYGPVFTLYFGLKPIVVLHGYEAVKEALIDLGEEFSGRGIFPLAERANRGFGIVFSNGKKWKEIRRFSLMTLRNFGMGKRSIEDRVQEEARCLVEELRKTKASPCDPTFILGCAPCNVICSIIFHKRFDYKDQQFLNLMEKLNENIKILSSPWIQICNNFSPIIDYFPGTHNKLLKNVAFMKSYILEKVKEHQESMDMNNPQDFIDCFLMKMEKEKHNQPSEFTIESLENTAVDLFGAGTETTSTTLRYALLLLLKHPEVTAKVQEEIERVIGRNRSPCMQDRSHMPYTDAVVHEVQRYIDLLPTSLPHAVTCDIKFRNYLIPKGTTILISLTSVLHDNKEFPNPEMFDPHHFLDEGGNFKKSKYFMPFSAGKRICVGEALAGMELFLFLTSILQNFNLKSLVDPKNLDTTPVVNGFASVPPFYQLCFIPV
Procedure: as §1, §2

| melting point [°C] | IC50 [1] [µM] | IC50 (KDR-Kinase (VEGFR-2)) [µM] | IC50 [2] [µM] | Compound |
| --- | --- | --- | --- | --- |
| 184 | 19 | 0.025 | 6.7 | CN(C)C(=O)Nc1cc(CNc2ccccc2C(=O)Nc2ccc3cn(C)nc3c2)ccn1 [Example 1.0, 2-{[2-(3,3-dimethyl-ureido)-pyridin-4-ylmethyl]-amino}-N-(2-methyl-2H-indazol-6-yl)-benzamide] |
|  | 9.9 | 0.035 | 3.8 | CCN(CC)C(=O)Nc1cc(CNc2ccccc2C(=O)Nc2ccc3cn(C)nc3c2)ccn1 [Example 1.1, 2-{[2-(3,3-diethyl-ureido)-pyridin-4-ylmethyl]-amino}-N-(2-methyl-2H-indazol-6-yl)-benzamide] |
|  | 26 | 0.024 | 6.6 | CCN(C)C(=O)Nc1cc(CNc2ccccc2C(=O)Nc2ccc3cn(C)nc3c2)ccn1 [Example 1.4, 2-{[2-(3-ethyl-3-methyl-ureido)-pyridin-4-ylmethyl]-amino}-N-(2-methyl-2H-indazol-6-yl)-benzamide] |
|  | 6.4 | 0.036 | 10 | CN(C)C(=O)Nc1cc(CNc2ccccc2C(=O)Nc2ccc3c(ccc(=O)n3C)c2)ccn1 [Example 2.2, 2-{[2-(3,3-dimethyl-ureido)-pyridin-4-ylmethyl]-amino}-N-(1-methyl-2-oxo-1,2-dihydro-quinolin-6-yl)-benzamide] |
